# Data taken from patent publication US10919889B2, “Chiral heterocyclic compound with hedgehog pathway antagonist activity, method and use thereof” (SUZHOU KINTOR PHARMACEUTICALS, INC., priority 2016, dated 2021).
# Molecular target: T1, WT-Smo (Homo sapiens, UniProt Q99835)
# T1 construct: HA; expressed in transfected cells
# Experiment: Bodipy-Cyclopamine binding assay
# Conditions: used in the Cheng-Prusoff equation
# Experimental: Bodipy-Cyclopamine binding assay is a fluorescence based assay used to analysis the binding of Smo agonists. Hek293-SMO stable clones were established by puromycin (1 ug/ml, Invitrogen) selection after transfection with SMO-HA-pLVX plasmid Hek293-SMO cells were maintained in complete culture medium (DMEM with 4 mM L-Gln, 1.5 g/L sodium bicarbonate and 4.5 g/L glucose supplemented with 100 ug/ml hygromycin and 10% FBS). The expression of SMO was validated with western blot and cell immunofluorescence. Bodipy-Cyclopamine was purchased from Toronto Research Chemicals and dissolved in methanol.
# Hek293-SMO cells were plated in 96-well-plate (3340, Corning), the final cell concentration is 15,000 cells/well in 100 ul 1% serum-containing DMEM. The plates were incubated in 37 degree for additional 48 hours.
# Hek293-SMO plate were washed with PBS and fixed with 4% paraformaldehyde (PFA)/PBS for 20 min at room temperature. After removing the PFA buffer, the cells were incubated with DAPI/PBS (5 ug/mL) for 10 min and followed by twice wash with PBS. […] The fluorescence images were automatically captured and analyzed by a high content fluorescence imaging system (Arrayscan VTI, Thermo). […] IC50 values were calculated with GraphPad Prism software using the sigmoidal dose-response function. The Ki was calculated following the Cheng-Prusoff equation, as Ki=IC50/[1+[bodipy-cyclopamine]/Kd)].
# T1 sequence (Q99835 28-787): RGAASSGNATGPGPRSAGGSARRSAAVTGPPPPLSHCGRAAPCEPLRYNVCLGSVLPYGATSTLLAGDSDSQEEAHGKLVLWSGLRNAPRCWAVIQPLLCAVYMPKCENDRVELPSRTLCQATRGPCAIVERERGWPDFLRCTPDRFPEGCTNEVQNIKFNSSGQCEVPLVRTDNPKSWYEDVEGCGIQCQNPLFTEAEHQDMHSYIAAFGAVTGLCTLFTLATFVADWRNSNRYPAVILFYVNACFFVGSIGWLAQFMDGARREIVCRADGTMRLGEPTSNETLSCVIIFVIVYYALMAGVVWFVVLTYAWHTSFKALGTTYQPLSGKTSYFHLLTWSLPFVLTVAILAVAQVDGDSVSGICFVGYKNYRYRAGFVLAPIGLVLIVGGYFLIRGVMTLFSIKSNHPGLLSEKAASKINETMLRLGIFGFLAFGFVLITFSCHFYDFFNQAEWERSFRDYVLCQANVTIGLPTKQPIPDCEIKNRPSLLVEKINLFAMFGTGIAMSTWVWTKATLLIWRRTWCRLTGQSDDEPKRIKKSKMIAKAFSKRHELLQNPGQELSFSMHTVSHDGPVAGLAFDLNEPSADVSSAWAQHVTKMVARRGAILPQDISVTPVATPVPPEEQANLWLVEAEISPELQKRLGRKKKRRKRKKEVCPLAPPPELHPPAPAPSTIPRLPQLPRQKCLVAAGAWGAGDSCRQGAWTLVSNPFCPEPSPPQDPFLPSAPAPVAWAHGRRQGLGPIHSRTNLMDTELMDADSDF
compound,measurement,value
CC1=C2CC3C(CC=C4C[C@@H](O)CCC43C)C2CCC12O[C@@H]1CC(C)CN(CCNC(=O)CCCCCNC(=O)CCC3=[N+]4C(=Cc5c(C)cc(C)n5[B-]4(F)F)C=C3)C1C2C (stereo partly shown) [bodipy-cyclopamine],Kd,3.5 ± 0.8 nM
